The values that follow come from patent US7282608B2, “Inhibitors of histone deacetylase” (Methylgene, Inc., priority 2002, dated 2007).

SMILES strings stand for the structures. Read-outs that look alike come from different tables or passages of the source.

Usually EC50 stands for the concentration at which the effect is half-maximal. In general, IC50 refers to the concentration at which inhibition is half-maximal.

Experiment [1] concerns acetylated histone H-4 in T24 human bladder cancer cells. The experiment is described as follows: Histone H4 acetylation in whole cells by immunoblots. The class given is cell-based. As to conditions: 16 h, read-out: H4 Ac (T24) EC50. The protocol:
T24 human bladder cancer cells growing in culture were incubated with HDAC inhibitors for 16 h. Histones were extracted from the cells after the culture period as described by M. Yoshida et al. (J. Biol. Chem. 265(28): 17174–17179 (1990)). […] of total histone protein was loaded onto SDS/PAGE and transferred to nitrocellulose membranes. Membranes were probed with polyclonal antibodies specific for acetylated histone H-4 (Upstate Biotech Inc.), followed by horse radish peroxidase conjugated secondary antibodies (Sigma). Enhanced Chemiluminescence (ECL) (Amersham) detection was performed using Kodak films (Eastman Kodak). Acetylated H-4 signal was quantified by densitometry. Representative data are presented in the fifth column of Table 7–10. Data are presented as the concentration effective for […] the acetylated H-4 signal by 50% (EC50).
Background: Immunoblotting shows a protein as a band on a membrane.

The target of experiment [2] is T1, cloned recombinant human HDAC-1 (Homo sapiens, UniProt Q13547).
T1 construct: made in house; host or cells: Baculovirus insect cell expression system
As to the kind of experiment: Human HDAC-1 Assay 1: [3H]-acetylated histone deacetylase assay. The class given is biochemical. As to conditions: Assay 1, unbracketed data; [3H]-acetylated histone substrate, 10 min at 37° C. The protocol: HDAC inhibitors were screened against a cloned recombinant human HDAC-1 enzyme expressed and purified from a Baculovirus insect cell expression system. For deacetylase assays, 20,000 cpm of the [^3H]-metabolically labeled acetylated histone substrate (M. Yoshida et al., J. Biol. Chem. 265(28): 17174–17179 (1990)) was incubated with 30 μg of the cloned recombinant hHDAC-1 for 10 minutes at 37° C. The reaction was stopped by adding acetic acid (0.04 M, final concentration) and HCl (250 mM, final concentration). […] For inhibition studies, the enzyme was preincubated with compounds at 4° C. for 30 minutes prior to initiation of the enzymatic assay. IC50 values for HDAC enzyme inhibitors were determined by performing dose response curves with individual compounds and determining the concentration of inhibitor producing fifty percent of the maximal inhibition. IC50 values for representative compounds assayed using this procedure are presented in the third column of Tables 7–10 (excepting bracketed data).

The subject of a further experiment is HCT116 cells. As to the kind of experiment: MTT assay. The class given is cell-based. As to conditions: Homo sapiens, HCT-116, 72 hours. The protocol: HCT116 cells (2000/well) were plated into 96-well tissue culture plates one day before compound treatment. Compounds at various concentrations were added to the cells. The cells were incubated for 72 hours at 37° C. in 5% CO2 incubator. MTT (3-[4,5-dimethylthiazol-2-yl]-2,5 diphenyl tetrazolium bromide, Sigma) was added at a final concentration of 0.5 mg/ml and incubated with the cells for 4 hours before one volume of solubilization buffer (50% N,N-dimethylformamide, 20% SDS, pH 4.7) was added onto the cultured cells. After overnight incubation, solubilized dye was quantified by colorimetric reading at […] using a reference at […] using an MR700 plate reader (Dynatech Laboratories Inc.). OD values were converted to cell numbers according to a standard growth curve of the relevant cell line. The concentration which reduces cell numbers to 50% of that of solvent treated cells is determined as MTT IC50. IC50 values for representative compounds are presented in the fourth column of Tables 7–10.
(In general: Tetrazolium dyes change colour on reduction, which living cells bring about.)

T1 sequence (Q13547 whole entry): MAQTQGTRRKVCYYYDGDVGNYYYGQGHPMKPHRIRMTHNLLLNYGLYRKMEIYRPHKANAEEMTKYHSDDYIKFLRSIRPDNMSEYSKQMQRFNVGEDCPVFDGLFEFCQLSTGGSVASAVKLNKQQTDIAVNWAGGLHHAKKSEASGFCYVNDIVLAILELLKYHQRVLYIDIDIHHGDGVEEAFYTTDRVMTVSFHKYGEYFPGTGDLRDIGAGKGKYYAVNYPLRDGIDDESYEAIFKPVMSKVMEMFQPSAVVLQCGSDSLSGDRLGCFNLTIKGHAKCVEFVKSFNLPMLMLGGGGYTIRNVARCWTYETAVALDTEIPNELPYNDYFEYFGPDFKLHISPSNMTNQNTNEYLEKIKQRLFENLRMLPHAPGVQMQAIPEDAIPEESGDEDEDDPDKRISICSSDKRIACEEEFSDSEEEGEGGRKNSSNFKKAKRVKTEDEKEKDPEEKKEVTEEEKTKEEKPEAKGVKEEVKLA

In the case of `Nc1ccccc1NC(=O)c1ccc(/C=C/C(=O)NC2Cc3ccccc3C2)cc1` [Vh, N-(2-Amino-phenyl)-4-[2-(indan-2-ylcarbamoyl)-vinyl]-benzamide], the 50% effective concentration (EC50) in experiment [1] (immunoblot densitometry) is 10 µM. Further, the half-maximal inhibitory concentration (IC50) in experiment [2] came out at 3 µM; in the experiment with HCT116 cells, 1 µM.

As to `Nc1ccccc1NC(=O)c1ccc(C(=O)/C=C/c2c(Cl)cccc2Cl)cc1` [Ic, N-(2-Amino-phenyl)-4-[3-(2,6-dichloro-phenyl)-acryloyl]benzamide], in experiment [1] (code 9999 of the footnote), the concentration giving a half-maximal response (EC50) was more than 25 µM. Further, the IC50 in experiment [2] was 3 µM; in the experiment on HCT116 cells, 0.4 µM.

With `COc1ccc(NC/C=C/c2ccc(C(=O)Nc3ccccc3N)cc2)cc1OC` [XVi, N-(2-Amino-phenyl)-4-[3-(3,4-dimethoxy-phenylamino)-propenyl]-benzamide], the EC50 in experiment [1] (immunoblot densitometry) was found to be 4 µM. The concentration for half-maximal inhibition (IC50) (in experiment [2]; with HCT116 cells) was 1 µM in each case.

As to `Nc1ccccc1NC(=O)c1ccc(/C=C/C(=O)c2ccccc2)cc1` [XXIVa, N-(2-Amino-phenyl)-4-(3-oxo-3-phenyl-propenyl)-benzamide], in experiment [1] (immunoblot densitometry), the EC50 is 3 µM. For the same molecule, the figures for the IC50 (in experiment [2]; with HCT116 cells) were 4 µM and 0.4 µM, respectively.

Consider `COc1cc(C)nc(NC/C=C/c2ccc(C(=O)Nc3ccccc3N)cc2)n1` [XVd, N-(2-Amino-phenyl)-4-[3-(4-methoxy-6-methyl-pyrimidin-2-ylamino)-propenyl]-benzamide], for which the EC50 in experiment [1] (immunoblot densitometry) stood at 3 µM. Also, the 50% inhibitory concentration (IC50) came to 4 µM in experiment [2] and 0.3 µM with HCT116 cells.

As to `Nc1ccccc1NC(=O)c1ccc(/C=C/C(=O)NCc2cccnc2)cc1` [Vb, N-(2-Amino-phenyl)-4-{2-[(pyridin-3-ylmethyl)-carbamoyl]-vinyl}-benzamide], the EC50 in experiment [1] (immunoblot densitometry) was determined as 1 µM. Besides, the results for the 50% inhibitory concentration (IC50) (in experiment [2]; in the experiment on HCT116 cells) were 3 µM and 0.07 µM, respectively.

For the molecule `Nc1ccccc1NC(=O)c1ccc(/C=C/C(=O)OCc2cccnc2)cc1` [Vg, Pyridin-3-ylmethyl 3-[4-(2-amino-phenylcarbamoyl)-phenyl]-acrylic ester], the IC50 stood at 10 µM in experiment [2] and 5 µM in the experiment with HCT116 cells.

`Nc1ccccc1NC(=O)c1ccc(/C=C/C(=O)NCCc2c[nH]c3ccccc23)cc1` [Vj, N-(2-Amino-phenyl)-4-{2-[2-(1H-indol-3-yl)-ethylcarbamoyl]-vinyl}-benzamide]: the EC50 in experiment [1] (immunoblot densitometry) stood at 1 µM. For the same molecule, the half-maximal inhibitory concentration (IC50) in experiment [2] is 1 µM; in the experiment with HCT116 cells, 0.3 µM.

Take `Nc1ccccc1NC(=O)c1ccc(/C=C/C(=O)NCCc2cccnc2)cc1` [Vf, N-(2-Amino-phenyl)-4-[2-(2-pyridin-3-yl-ethylcarbamoyl)-vinyl]-benzamide]: the concentration for a half-maximal effect (EC50) in experiment [1] (immunoblot densitometry) amounted to 1 µM. Also, the half-maximal inhibitory concentration (IC50) in experiment [2] was determined as 5 µM; in the experiment on HCT116 cells, 0.3 µM.

Take `CSc1nc(NC/C=C/c2ccc(C(=O)Nc3ccccc3N)cc2)n[nH]1` [XVe, N-(2-Amino-phenyl)-4-[3-(5-methylsulfanyl-1H-[1,2,4]triazol-3-ylamino)-propenyl]-benzamide]: the concentration giving a half-maximal response (EC50) in experiment [1] (immunoblot densitometry) was 1 µM. Further, the 50% inhibitory concentration (IC50) in experiment [2] worked out at 2 µM; in the experiment with HCT116 cells, 0.5 µM.

Turning to `Nc1ccccc1NC(=O)c1ccc(C(=O)/C=C/c2ccc(Cl)c(Cl)c2)cc1` [Ia, N-(2-Amino-phenyl)-4-[3-(3,4-dichloro-phenyl)-acryloyl]-benzamide], the IC50 in experiment [2] worked out at 5 µM; in the experiment on HCT116 cells, 1 µM.

As to `COc1cc(NC(=O)/C=C/c2ccc(C(=O)Nc3ccccc3N)cc2)cc(OC)c1OC` [Va, N-(2-Amino-phenyl)-4-[2-(3,4,5-trimethoxy-phenylcarbamoyl)-vinyl]-benzamide], the IC50 in experiment [2] stood at 5 µM; in the experiment with HCT116 cells it was 3 µM.

For `COc1cc(CNC(=O)/C=C/c2ccc(C(=O)Nc3ccccc3N)cc2)cc(OC)c1OC` [Vc, N-(2-Amino-phenyl)-4-[2-(3,4,5-trimethoxy-benzylcarbamoyl)-vinyl]-benzamide], in experiment [1] (immunoblot densitometry), the concentration giving a half-maximal response (EC50) came out at 2 µM. Also, the IC50 amounted to 3 µM in experiment [2] and 0.9 µM with HCT116 cells.

With `Nc1ccccc1NC(=O)c1ccc(/C=C/C(=O)N2CCN(c3ccccn3)CC2)cc1` [Vm, N-(2-Amino-phenyl)-4-[3-oxo-3-(4-pyridin-2-yl-piperazin-1-yl)-propenyl]-benzamide], the figures for the 50% inhibitory concentration (IC50) (in experiment [2]; with HCT116 cells) were 11 µM and 6 µM, respectively.

For `Nc1ccccc1NC(=O)c1ccc(C(=O)/C=C/c2ccc(OC(F)F)c(OC3CC3)c2)cc1` [Ig, N-(2-Amino-phenyl)-4-[3-(3-cyclopropoxy-4-difluoromethoxy-phenyl)-acryloyl]-benzamide], in experiment [1] (code 9999 of the footnote), the concentration for a half-maximal effect (EC50) was more than 25 µM. Further, the IC50 in experiment [2] came to 3 µM; with HCT116 cells it was 0.7 µM.

Take `Nc1ccccc1NC(=O)c1ccc(/C=C/C(=O)N(Cc2cccnc2)Cc2cccnc2)cc1` [Vo, N-(2-Amino-phenyl)-4-[2-(bis-pyridin-3-ylmethyl-carbamoyl)-vinyl]-benzamide]: the IC50 in experiment [2] amounted to 15 µM; in the experiment with HCT116 cells it was 4 µM.

In the case of `COc1ccc(NC/C=C/c2ccc(C(=O)Nc3ccccc3N)cc2)cc1OC1CCCC1` [XVa, N-(2-Amino-phenyl)-4-[3-(3-cyclopentyloxy-4-methoxy-phenylamino)-propenyl]-benzamide], the 50% effective concentration (EC50) in experiment [1] (immunoblot densitometry) was 1 µM. The values for the concentration for half-maximal inhibition (IC50) (in experiment [2]; in the experiment on HCT116 cells) were 2 µM and 1 µM, respectively.

For the molecule `Nc1ccccc1NC(=O)c1ccc(/C=C/C(=O)N[C@H]2c3ccccc3C[C@H]2O)cc1` [Vp, (−)-(1S,2R)-N-(2-Amino-phenyl)-4-[2-(2-hydroxy-indan-1-ylcarbamoyl)-vinyl]-benzamide], the IC50 in experiment [2] was determined as 13 µM; in the experiment with HCT116 cells it was 2 µM.

As for `Nc1ccccc1NC(=O)c1ccc(C(=O)/C=C/c2ccc(Cl)cc2)cc1` [Ie, N-(2-Amino-phenyl)-4-[3-(4-chloro-phenyl)-acryloyl]-benzamide], the IC50 in experiment [2] came to 6 µM; in the experiment on HCT116 cells, 9 µM.

As to `N#CCCN(Cc1cccnc1)C(=O)/C=C/c1ccc(C(=O)Nc2ccccc2N)cc1` [Vn, N-(2-Amino-phenyl)-4-{2-[(2-cyano-ethyl)-pyridin-3-ylmethyl-carbamoyl]-vinyl}-benzamide], the IC50 was 7 µM in experiment [2] and 3 µM with HCT116 cells.

For `COc1cc(OC)c(/C=C/C(=O)c2ccc(C(=O)Nc3ccccc3N)cc2)c(OC)c1` [If, N-(2-Amino-phenyl)-4-[3-(2,4,6-trimethoxy-phenyl)-acryloyl]-benzamide], the half-maximal inhibitory concentration (IC50) in experiment [2] amounted to 4 µM; with HCT116 cells, 5 µM.

Turning to `Nc1ccccc1NC(=O)c1ccc(/C=C/C(=O)N2CCCC2c2cccnc2)cc1` (racemic) [Vl, (rac)-N-(2-Amino-phenyl)-4-[3-oxo-3-(2-pyridin-3-yl-pyrrolidin-1-yl)-propenyl]-benzamide], the IC50 in experiment [2] was found to be 12 µM; with HCT116 cells it was 4 µM.

With `CC(C)(C)OC(=O)N(C/C=C/c1ccc(C(=O)Nc2ccccc2N)cc1)Cc1cccnc1` [XXIIh, t-Butyl {3-[4-(2-amino-phenylcarbamoyl)-phenyl]-ally}-pyridin-3-ylmethyl-carbamate], the IC50 (in experiment [2]; in the experiment with HCT116 cells) was 3 µM in each case.

For the molecule `Nc1ccccc1NC(=O)c1ccc(/C=C/C(=O)N2CCOCC2)cc1` [Ve, N-(2-Amino-phenyl)-4-(3-morpholin-4-yl-3-oxo-propenyl)-benzamide], the figures for the IC50 (in experiment [2]; in the experiment with HCT116 cells) were 20 µM and 6 µM, respectively.

Regarding `COc1ccc(C2CCN(C(=O)/C=C/c3ccc(C(=O)Nc4ccccc4N)cc3)CC2)cc1OC` [Vk, N-(2-Amino-phenyl)-4-{3-[4-(3,4-dimethoxy-phenyl)-piperidin-1-yl]-3-oxo-propenyl}-benzamide], the half-inhibitory concentration (IC50) in experiment [2] is 13 µM; in the experiment with HCT116 cells, 2 µM.

Consider `Nc1ccccc1NC(=O)c1ccc(CCCc2ccccc2)cc1` [XXIXa, N-(2-Amino-phenyl)-4-(3-phenyl-propyl)-benzamide], for which the IC50 in experiment [2] turned out to be 2 µM; in the experiment with HCT116 cells, 0.6 µM.

As for `Cc1ccc(S(=O)(=O)NC/C=C/c2ccc(C(=O)Nc3ccccc3N)cc2)cc1` [XVg, N-(2-Amino-phenyl)-4-[3-(4-tolyl-sulfonylamino)-propenyl]-benzamide], the concentration for half-maximal inhibition (IC50) was found to be 12 µM in experiment [2] and 5 µM in the experiment with HCT116 cells.
